These are literature values, as cited in patent publication US20080317729A1, “Ammonium Salts and Ammonium Salt/Mineral Salt Clathrate Compounds for Use as Vehicle and Effective Form for Pharmaco-Medical Applications and for Use as Phase Transfer Agents for Chemical Applications” (priority 2004, published 2008).

The structures appear in SMILES notation.

As to `CCN(CC)CCOC(=O)c1ccc(N)cc1` [diprocainium carbonate], the solubility entry was “moderately dissoluble”.
